Assay results published in PMC4338079, “N-Terminus Three Residues Deletion Mutant of Human Beta-Defensin 3 with Remarkably Enhanced Salt-Resistance” (PLoS ONE, 2015).
Where a SMILES comes first, the peptide text is derived from it. Where no end group is shown, it is not given here.

What was measured:
K. pneumonia ATCC 700603 = assay type: cell-based, Klebsiella pneumonia; conditions: 10^5-10^6 CFU/ml in PBS pH 7.2, 3 h at 37°C, colony count, mean ± SD of three
Description: (§1) Ten strains obtained from the American Type Culture Collection (ATCC) and China Center of Industrial Culture Collection (CICC) were used for antibacterial and salt resistance assays. The Gram-positive strains were Staphyloccocus aureus ATCC 29213, Enterococcus faecalis ATCC 29212, Staphylococcus epidermidis ATCC 12228, Enterococcus faecium ATCC 6057, and Enterococcus faecium ATCC 19434. The Gram-negative strains were Escherichia coli ATCC 25922, Pseudomonas aeruginosa ATCC 15442, Klebsiella pneumonia ATCC 700603, Shigella flexneri CICC 21534, and Shigella sonnei CICC 21535. Fifteen E. coli clinical isolates were collected from 302 Military Hospital of China. The Gram-positive and Gram-negative strains were grown in Luria—Bertani (LB) and Mueller—Hinton (MH) media at 37°C, respectively.
(§2) The antibacterial activities of these peptides were determined in a modified microdilution assay as described previously. […] The five concentrations of the peptides were added to 200 μl of the bacterial suspension and then incubated at 37°C for 3 h before CFU numbers were determined. […] The cells were serially diluted in the same buffer, plated on Luria broth plates, and then incubated for 18 h at 37°C before the resulting colonies were counted. The bactericidal activity was expressed as the ratio of colonies counted to the number of colonies on a control plate. […]

S. aureus ATCC 29213 = assay type: cell-based, Staphyloccocus aureus; conditions: 10^5-10^6 CFU/ml in PBS pH 7.2, 3 h at 37°C, colony count, mean ± SD of three
Description: as §1, §2

Vero cells = test system: Vero cells
Method: Vero cells suspended in Dulbecco’s modified Eagle’s medium (DMEM)-high glucose culture medium supplemented with 10% (vol/vol) fetal calf serum and 1% (vol/vol) penicillin—streptomycin were seeded on a 96-well microtiter plate at a density of 1×10^4 cells per well. After incubation overnight at 37°C under 5% CO2 in a humidified atmosphere, the cells were washed twice with buffer (pH 7.4) containing 20 mM HEPES and 150 mM NaCl. Defensins were diluted in the same wash buffer, and 200 μl was added per well. The buffer was discarded after 2 h of incubation at 37°C under 5% CO2. Subsequently, 200 μl of DMEM and 50 μl of 3-(4,5-dimethylthiazol-2-yl)-2,5-diphenyltetrazolium bromide (MTT, 5 mg/ml) were added. DMEM (100%) and MTT were discarded, and 200 μl of DMSO was added in the plate after 6 h of incubation at 37°C under 5% CO2. The absorbance was measured at 490 nm with a microtiter plate reader.

[1] = test system: S. epidermidis ATCC 12228; assay type: cell-based, Staphylococcus epidermidis; conditions: 10^5-10^6 CFU/ml in PBS pH 7.2, 3 h at 37°C, colony count, mean ± SD of three
Description: as §1, §2

P. Aeruginosa ATCC 15442 = assay type: cell-based, Pseudomonas aeruginosa; conditions: 10^5-10^6 CFU/ml in PBS pH 7.2, 3 h at 37°C, colony count, mean ± SD of three
Description: as §1, §2

E. faecium ATCC 19434 = assay type: cell-based, Enterococcus faecium; conditions: 10^5-10^6 CFU/ml in PBS pH 7.2, 3 h at 37°C, colony count, mean ± SD of three
Description: as §1, §2

E. faecium ATCC 6057 = assay type: cell-based, Enterococcus faecium; conditions: 10^5-10^6 CFU/ml in PBS pH 7.2, 3 h at 37°C, colony count, mean ± SD of three
Description: as §1, §2

S. flexneri CICC 21534 = assay type: cell-based, Shigella flexneri; conditions: 10^5-10^6 CFU/ml in PBS pH 7.2, 3 h at 37°C, colony count, mean ± SD of three
Description: as §1, §2

[2] = test system: four Gram-positive and five Gram-negative bacteria; assay: Salt resistance assay, summary over the nine tested strains; assay type: cell-based; conditions: peptide 10 μg/ml (30 μg/ml K. pneumonia)
Method: (§3) The antibacterial activities of these peptides were determined in a modified microdilution assay as described previously. The strains were grown under aerobic condition in MH or LB broth at 37°C and then harvested in the exponential phase of growth (OD600 ≈ 0.6. OD, optical density). After dilution, the test strains were adjusted to 10^5 to 10^6 CFU bacteria per ml in phosphate-buffered saline solution (pH 7.2). The five concentrations of the peptides were added to 200 μl of the bacterial suspension and then incubated at 37°C for 3 h before CFU numbers were determined. Phosphate buffer served as the negative control. The cells were serially diluted in the same buffer, plated on Luria broth plates, and then incubated for 18 h at 37°C before the resulting colonies were counted. The bactericidal activity was expressed as the ratio of colonies counted to the number of colonies on a control plate. The 90% lethal concentration (LD90) is the concentration of the peptide at which 90% of viable cells are killed.
(§4) For the salt resistance assay, NaCl was included in the incubation buffer (1% MH or LB) over a range of concentrations (0, 50, 100, 150, and 200 mM NaCl) potentially present in the airway surface fluid of healthy subjects and patients with cystic fibrosis. For E. coli clinical isolates, the NaCl concentrations were increased to 0, 50, 100, 150, 200, 250, and 300 mM. The peptide concentration used in the salt dependence assay was 10 μg/ml, except for the 30 μg/ml concentration used against K. pneumonia ATCC 700603. Each assay was performed in triplicate. Bactericidal activity (the mean and standard deviation of three assays) was expressed as the ratio between the number of colonies counted and the number of colonies on a control plate.

E. faecalis ATCC 29212 = assay type: cell-based, Enterococcus faecalis; conditions: 10^5-10^6 CFU/ml in PBS pH 7.2, 3 h at 37°C, colony count, mean ± SD of three
Description: as §1, §2

S. sonnei CICC 21535 = assay type: cell-based, Shigella sonnei; conditions: 10^5-10^6 CFU/ml in PBS pH 7.2, 3 h at 37°C, colony count, mean ± SD of three
Description: as §1, §2

[3] = test system: fifteen E. coli clinical isolates; assay: Salt resistance assay against clinical isolates; assay type: cell-based, Escherichia coli; conditions: of 15 E. coli clinical isolates, peptide 10 μg/ml
Description: as §1, §3, §4

E. coli ATCC 25922 = assay type: cell-based, Escherichia coli; conditions: 10^5-10^6 CFU/ml in PBS pH 7.2, 3 h at 37°C, colony count, mean ± SD of three
Description: as §1, §2

Compound | LD90 (Mean ± SD) (K. pneumonia ATCC 700603) | LD90 (Mean ± SD) (S. aureus ATCC 29213) [µg/mL] | Concentration from which cytotoxicity starts (Vero cells) | LD90 (Mean ± SD) [1] [µg/mL] | LD90 (Mean ± SD) (P. Aeruginosa ATCC 15442) [µg/mL] | LD90 (Mean ± SD) (E. faecium ATCC 19434) [µg/mL] | LD90 (Mean ± SD) (E. faecium ATCC 6057) [µg/mL] | LD90 (Mean ± SD) (S. flexneri CICC 21534) [µg/mL] | Effect of NaCl on antibacterial activity ([2]; 50 mM NaCl, all the tested strains, except for E. coli) | Effect of NaCl on antibacterial activity ([2]; 200 mM NaCl versus 0 mM NaCl, P < 0.01) | LD90 (Mean ± SD) (E. faecalis ATCC 29212) [µg/mL] | LD90 (Mean ± SD) (S. sonnei CICC 21535) [µg/mL] | Number of isolates in which 50% or more activity was retained ([3]; 200 mM NaCl) | LD90 (Mean ± SD) (E. coli ATCC 25922) [µg/mL] | Effect of NaCl on antibacterial activity ([2]; 100 mM NaCl, all the tested strains, except for S. aureus) | Number of isolates in which 50% or more activity was retained ([3]; 250 mM NaCl) [isolates] | Number of isolates in which 50% or more activity was retained ([3]; 300 mM NaCl) [isolates]
CC[C@H](C)[C@H](NC(=O)[C@H](CCC(N)=O)NC(=O)[C@H](CCC(=O)O)NC(=O)[C@H](CCC(=O)O)NC(=O)[C@H](CCCCN)NC(=O)[C@@H]1CCCN1C(=O)[C@H](CC(C)C)NC(=O)[C@H](CS)NC(=O)[C@H](CO)NC(=O)[C@H](CC(C)C)NC(=O)[C@@H](NC(=O)[C@H](C)NC(=O)[C@H](CS)NC(=O)[C@H](CCCNC(=N)N)NC(=O)CNC(=O)CNC(=O)[C@H](CCCNC(=N)N)NC(=O)[C@@H](NC(=O)[C@H](CCCNC(=N)N)NC(=O)[C@H](CS)NC(=O)[C@@H](N)Cc1ccc(O)cc1)C(C)C)C(C)C)C(=O)NCC(=O)N[C@@H](CCCCN)C(=O)N[C@@H](CS)C(=O)N[C@@H](CO)C(=O)N[C@H](C(=O)N[C@@H](CCCNC(=N)N)C(=O)NCC(=O)N[C@@H](CCCNC(=N)N)C(=O)N[C@@H](CCCCN)C(=O)N[C@@H](CS)C(=O)N[C@@H](CS)C(=O)N[C@@H](CCCNC(=N)N)C(=O)N[C@@H](CCCNC(=N)N)C(=O)N[C@@H](CCCCN)C(=O)N[C@@H](CCCCN)C(=O)O)[C@@H](C)O [hBD-3Δ10] (H-YCRVRGGRCAVLSCLPKEEQIGKCSTRGRKCCRRKK-OH; N-terminus and C-terminus assumed) | more than 100 μg/ml |  |  |  |  |  |  |  |  |  |  |  |  |  |  |  | 
GIINTLQKYYCRVRGGRCAVLSCLPKEEQIGKCSTRGRKCCRRKK (cysteines drawn unpaired) [hBD-3, human beta-defensin 3] | 18.6 ± 2.8 µg/mL | 4.0 ± 0.8 | higher than 20 μg/ml | 3.5 ± 1.2 | 6.8 ± 0.9 | 2.3 ± 0.5 | 1.6 ± 0.4 | 3.7 ± 0.2 | not or slightly inhibited | greatly inhibited | 2.4 ± 1.0 | 4.0 ± 0.7 | two | 8.0 ± 1.2 |  |  | 
NTLQKYYCRVRGGRCAVLSCLPKEEQIGKCSTRGRKCCRRKK (cysteines drawn unpaired) [hBD-3Δ4] |  |  |  |  |  |  |  |  |  |  |  |  | 14 isolates |  | almost the same antimicrobial activity as it would have in the absence of NaCl | 8 | 5
